# According to ChEMBL document CHEMBL3885881, “DrugMatrix”:
# Organism: Rattus norvegicus
# Assay: DrugMatrix - Regimen: Daily Repeat
# Format: toxicity, organism-based, Sprague-Dawley
# Parameters: regimen Daily Repeat, gender Male, age 6-8 weeks
# Conditions: in vivo, po, route oral GAVAGE, vehicle .5 % CMC; for ABSOLUTE BASOPHIL / ABSOLUTE EOSINOPHIL / ABSOLUTE LYMPHOCYTE / ABSOLUTE MONOCYTE / ABSOLUTE SEGMENTED NEUTROPHIL / BASOPHIL / EOSINOPHIL / ERYTHROCYTE COUNT / HEMATOCRIT / HEMOGLOBIN / LEUKOCYTE COUNT / LYMPHOCYTE / MEAN CORPUSCULAR HEMOGLOBIN / MEAN CORPUSCULAR HEMOGLOBIN CONCENTRATION / MEAN CORPUSCULAR VOLUME / MONOCYTE / NEUTROPHIL / NUCLEATED RED BLOOD CELLS / PLATELET COUNT: tissue Blood; for ALANINE AMINOTRANSFERASE / ALBUMIN / ALKALINE PHOSPHATASE / ASPARTATE AMINOTRANSFERASE / BLOOD UREA NITROGEN / CARBON DIOXIDE / CHLORIDE / CHOLESTEROL / CREATINE PHOSPHOKINASE / CREATININE / GLUCOSE / LACTATE DEHYDROGENASE / LIPASE / PHOSPHORUS / POTASSIUM / SODIUM / TOTAL BILIRUBIN / TOTAL PROTEIN / URIC ACID: tissue Plasma
# [1] = 150 mg/kg, 120 h, dose level Low, time 5 day
# [2] = 1500 mg/kg, 72 h, dose level High, time 3 day
# [3] = 1500 mg/kg, 120 h, dose level High, time 5 day
smiles,measurement,setting,value
C[C@@H](O)[C@H]1C(=O)N2C(C(=O)O)=C(S[C@@H]3CN[C@H](C(=O)N(C)C)C3)[C@H](C)[C@H]12 [MEROPENEM],ABSOLUTE BASOPHIL,[1],0 CELLS/uL
same,ABSOLUTE EOSINOPHIL,[1],351 CELLS/uL
same,ABSOLUTE LYMPHOCYTE,[1],13228.33 CELLS/uL
same,ABSOLUTE MONOCYTE,[1],0 CELLS/uL
same,ABSOLUTE SEGMENTED NEUTROPHIL,[1],1520.67 CELLS/uL
same,BASOPHIL,[1],0%
same,EOSINOPHIL,[1],2.33%
same,ERYTHROCYTE COUNT,[1],5.62 x10E6/uL
same,HEMATOCRIT,[1],34.4%
same,HEMOGLOBIN,[1],13.1 G/DL
same,LEUKOCYTE COUNT,[1],15.1 x10E3/uL
same,LYMPHOCYTE,[1],88%
same,MEAN CORPUSCULAR HEMOGLOBIN,[1],23.37 pg
same,MEAN CORPUSCULAR HEMOGLOBIN CONCENTRATION,[1],38.1 G/DL
same,MEAN CORPUSCULAR VOLUME,[1],61.33 fL
same,MONOCYTE,[1],0%
same,NEUTROPHIL,[1],9.67%
same,NUCLEATED RED BLOOD CELLS,[1],0 /100WBC
same,PLATELET COUNT,[1],1149.33 x10E3/uL
same,ALANINE AMINOTRANSFERASE,[1],61.33 u/L
same,ALBUMIN,[1],4.13 G/DL
same,ALKALINE PHOSPHATASE,[1],367 u/L
same,ASPARTATE AMINOTRANSFERASE,[1],86 u/L
same,BLOOD UREA NITROGEN,[1],19 mg/dL
same,CARBON DIOXIDE,[1],25.33 mmol/L
same,CHLORIDE,[1],101.67 MEQ/L
same,CHOLESTEROL,[1],70 mg/dL
same,CREATINE PHOSPHOKINASE,[1],254 u/L
same,CREATININE,[1],0.23 mg/dL
same,GLUCOSE,[1],161 mg/dL
same,LACTATE DEHYDROGENASE,[1],187.67 u/L
same,LIPASE,[1],9 u/L
same,PHOSPHORUS,[1],12.3 mg/dL
same,POTASSIUM,[1],6.26 MEQ/L
same,SODIUM,[1],142.3 MEQ/L
same,TOTAL BILIRUBIN,[1],0.17 mg/dL
same,TOTAL PROTEIN,[1],5.93 G/DL
same,URIC ACID,[1],1.6 mg/dL
same,ABSOLUTE BASOPHIL,[2],0 CELLS/uL
same,ABSOLUTE EOSINOPHIL,[2],214 CELLS/uL
same,ABSOLUTE LYMPHOCYTE,[2],12444.67 CELLS/uL
same,ABSOLUTE MONOCYTE,[2],0 CELLS/uL
same,ABSOLUTE SEGMENTED NEUTROPHIL,[2],841.33 CELLS/uL
same,BASOPHIL,[2],0%
same,EOSINOPHIL,[2],1.33%
same,ERYTHROCYTE COUNT,[2],5.72 x10E6/uL
same,HEMATOCRIT,[2],35.5%
same,HEMOGLOBIN,[2],13.53 G/DL
same,LEUKOCYTE COUNT,[2],13.5 x10E3/uL
same,LYMPHOCYTE,[2],92.33%
same,MEAN CORPUSCULAR HEMOGLOBIN,[2],23.8 pg
same,MEAN CORPUSCULAR HEMOGLOBIN CONCENTRATION,[2],38.2 G/DL
same,MEAN CORPUSCULAR VOLUME,[2],62.23 fL
same,MONOCYTE,[2],0%
same,NEUTROPHIL,[2],6.33%
same,NUCLEATED RED BLOOD CELLS,[2],0 /100WBC
same,PLATELET COUNT,[2],1189 x10E3/uL
same,ALANINE AMINOTRANSFERASE,[2],52.67 u/L
same,ALBUMIN,[2],4.33 G/DL
same,ALKALINE PHOSPHATASE,[2],317 u/L
same,ASPARTATE AMINOTRANSFERASE,[2],76 u/L
same,BLOOD UREA NITROGEN,[2],13.33 mg/dL
same,CARBON DIOXIDE,[2],29.33 mmol/L
same,CHLORIDE,[2],99.67 MEQ/L
same,CHOLESTEROL,[2],85.33 mg/dL
same,CREATINE PHOSPHOKINASE,[2],176.67 u/L
same,CREATININE,[2],0.17 mg/dL
same,GLUCOSE,[2],160.67 mg/dL
same,LACTATE DEHYDROGENASE,[2],71 u/L
same,LIPASE,[2],9 u/L
same,PHOSPHORUS,[2],11.83 mg/dL
same,POTASSIUM,[2],6.87 MEQ/L
same,SODIUM,[2],144.6 MEQ/L
same,TOTAL BILIRUBIN,[2],0.17 mg/dL
same,TOTAL PROTEIN,[2],5.9 G/DL
same,URIC ACID,[2],1.9 mg/dL
same,ABSOLUTE BASOPHIL,[3],0 CELLS/uL
same,ABSOLUTE EOSINOPHIL,[3],276.67 CELLS/uL
same,ABSOLUTE LYMPHOCYTE,[3],12982 CELLS/uL
same,ABSOLUTE MONOCYTE,[3],0 CELLS/uL
same,ABSOLUTE SEGMENTED NEUTROPHIL,[3],1474.67 CELLS/uL
same,BASOPHIL,[3],0%
same,EOSINOPHIL,[3],2%
same,ERYTHROCYTE COUNT,[3],5.69 x10E6/uL
same,HEMATOCRIT,[3],36.37%
same,HEMOGLOBIN,[3],13.67 G/DL
same,LEUKOCYTE COUNT,[3],14.73 x10E3/uL
same,LYMPHOCYTE,[3],88%
same,MEAN CORPUSCULAR HEMOGLOBIN,[3],24.07 pg
same,MEAN CORPUSCULAR HEMOGLOBIN CONCENTRATION,[3],37.6 G/DL
same,MEAN CORPUSCULAR VOLUME,[3],63.97 fL
same,MONOCYTE,[3],0%
same,NEUTROPHIL,[3],10%
same,NUCLEATED RED BLOOD CELLS,[3],0 /100WBC
same,PLATELET COUNT,[3],1178 x10E3/uL
same,ALANINE AMINOTRANSFERASE,[3],52.33 u/L
same,ALBUMIN,[3],4.47 G/DL
same,ALKALINE PHOSPHATASE,[3],443.33 u/L
same,ASPARTATE AMINOTRANSFERASE,[3],75.67 u/L
same,BLOOD UREA NITROGEN,[3],16.67 mg/dL
same,CARBON DIOXIDE,[3],28.33 mmol/L
same,CHLORIDE,[3],101.33 MEQ/L
same,CHOLESTEROL,[3],60.67 mg/dL
same,CREATINE PHOSPHOKINASE,[3],199 u/L
same,CREATININE,[3],0.23 mg/dL
same,GLUCOSE,[3],155 mg/dL
same,LACTATE DEHYDROGENASE,[3],127.33 u/L
same,LIPASE,[3],9 u/L
same,PHOSPHORUS,[3],12.27 mg/dL
same,POTASSIUM,[3],6.59 MEQ/L
same,SODIUM,[3],147.07 MEQ/L
same,TOTAL BILIRUBIN,[3],0.13 mg/dL
same,TOTAL PROTEIN,[3],6.3 G/DL
same,URIC ACID,[3],1.6 mg/dL
